Where two headings read alike, the source gives them in different places.
What was measured:
[1] = system: yeast-mold isolate (1/3 black fungal isolate, 1/3 gray fungal isolate, 1/3 Yarrowia lipolytica); format: cell-based, yeast-mold isolate from a beverage plant
yeast-mold isolate = assay: Coupon testing for bio-load removal study (five step sanitation program); format: cell-based, yeast-mold isolate from a beverage plant; conditions: silicon rubber coupon pre-treated with the labelled agent, inoculated, then five step sanitation program (2600 ppm Vortexx, 40° C., 15 minutes)
Experimental: The same yeast-mold isolates as in the antimicrobial treatment method were grown up for inoculation onto the coupons. The coupons were inoculated with the isolates. The coupons were then subjected to the inventive five step method involving an initial rinse step, a detergent wash step, an intermediate rinse step, an antimicrobial treatment step, and a final rinse step. The coupons were first placed in 1000 ml of ambient water for 10 minutes. The coupons were then placed in 1000 ml of a wash solution for 60 minutes. The coupons were then placed in a 2600 ppm solution Vortexx™ at 40° C. for 15 minutes. Finally, the coupons were placed in a jar containing sterile water. The carriers were than placed in 25 ml of 0.5% sodium thiosulfate neutralizing solution to suspend any surviving organisms. The neutralizing solution was then filtered and plated on Sabouraud's Dextrose Agar in order to determine the number of surviving organisms.

[2] = 185 F. water, 15 minute contact, Stainless Steel coupon, no pre-treatment

SMILES: O [185 F. Water, water]
- Percent Reduction ([1]; 185 F. water, 15-minute contact, BUNA N coupon, pH 2.3 phosphoric acid 104 F. 2 weeks): >99.5%
- Percent Reduction ([1]; 185 F. water, 15-minute contact, BUNA N coupon, pH 13 caustic 185 F. 2 weeks): >99.8%
- Filter Survivors [1, 2]: <1 CFU
- Percent Reduction [1, 2]: >99.9%
- log reduction ([1]; stainless steel coupon, not preconditioned, Table 2 treatments): 3 log
- Percent Reduction (avg of 3) (yeast-mold isolate): 38.3%
- log reduction (yeast-mold isolate; listed as 185° F. Water): <1 log
- log reduction (yeast-mold isolate; listed as 185° F. water): 1 log
